According to patent publication US20250154144A1 (CHILDREN'S HOSPITAL MEDICAL CENTER, priority 2021, published 2025):
Read-outs that look alike come from different tables or passages of the source. Values belong to the molecule of their own block, whether it stands above or below them.

Key:
[1] = biological target: T1, FLT3 (Homo sapiens, UniProt P36888); test: RBC HotSpot Kinase Assay, FLT3
T1 sequence (P36888 610-943 limits assumed): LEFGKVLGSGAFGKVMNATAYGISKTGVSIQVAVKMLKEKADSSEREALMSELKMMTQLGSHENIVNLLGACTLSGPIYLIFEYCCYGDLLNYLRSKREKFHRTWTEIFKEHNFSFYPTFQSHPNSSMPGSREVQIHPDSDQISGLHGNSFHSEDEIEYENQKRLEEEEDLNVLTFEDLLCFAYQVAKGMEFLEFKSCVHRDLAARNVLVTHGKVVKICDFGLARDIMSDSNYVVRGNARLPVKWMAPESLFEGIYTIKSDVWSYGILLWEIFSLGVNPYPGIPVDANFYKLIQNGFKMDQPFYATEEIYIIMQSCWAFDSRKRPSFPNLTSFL

[2] = tested on: THP1 cells; test: Combination drug screening, Cell Titer Glo, 10 × 10 matrix, THP1 cells; assay type: cell-based; conditions: THP1 cells; for Excess HSA Score: 10 × 10
[3] = tested on: MOLM14(D835Y) cells; assay type: cell-based; conditions: MOLM14(D835Y) cells; for Excess HSA Score: 10 × 10
[4] = biological target: T2, IRAK4 (Homo sapiens, UniProt Q9NWZ3); test: RBC HotSpot Kinase Assay, IRAK4
T2 sequence (Q9NWZ3 1-460): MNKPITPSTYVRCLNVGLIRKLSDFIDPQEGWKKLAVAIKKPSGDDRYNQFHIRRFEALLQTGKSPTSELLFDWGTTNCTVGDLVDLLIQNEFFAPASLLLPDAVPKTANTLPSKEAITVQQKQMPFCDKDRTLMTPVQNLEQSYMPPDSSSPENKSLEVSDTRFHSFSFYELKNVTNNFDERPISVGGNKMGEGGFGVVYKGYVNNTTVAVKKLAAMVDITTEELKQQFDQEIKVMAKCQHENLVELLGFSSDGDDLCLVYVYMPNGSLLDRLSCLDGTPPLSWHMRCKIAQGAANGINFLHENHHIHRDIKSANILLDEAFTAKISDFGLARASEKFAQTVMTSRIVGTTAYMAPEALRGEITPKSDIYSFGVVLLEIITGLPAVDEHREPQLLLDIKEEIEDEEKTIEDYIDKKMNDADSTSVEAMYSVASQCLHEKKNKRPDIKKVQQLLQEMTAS

[5] = biological target: IRAK1 (Homo sapiens, UniProt P51617); test: RBC HotSpot Kinase Assay, IRAK1
Chain of IRAK1 (P51617 whole entry): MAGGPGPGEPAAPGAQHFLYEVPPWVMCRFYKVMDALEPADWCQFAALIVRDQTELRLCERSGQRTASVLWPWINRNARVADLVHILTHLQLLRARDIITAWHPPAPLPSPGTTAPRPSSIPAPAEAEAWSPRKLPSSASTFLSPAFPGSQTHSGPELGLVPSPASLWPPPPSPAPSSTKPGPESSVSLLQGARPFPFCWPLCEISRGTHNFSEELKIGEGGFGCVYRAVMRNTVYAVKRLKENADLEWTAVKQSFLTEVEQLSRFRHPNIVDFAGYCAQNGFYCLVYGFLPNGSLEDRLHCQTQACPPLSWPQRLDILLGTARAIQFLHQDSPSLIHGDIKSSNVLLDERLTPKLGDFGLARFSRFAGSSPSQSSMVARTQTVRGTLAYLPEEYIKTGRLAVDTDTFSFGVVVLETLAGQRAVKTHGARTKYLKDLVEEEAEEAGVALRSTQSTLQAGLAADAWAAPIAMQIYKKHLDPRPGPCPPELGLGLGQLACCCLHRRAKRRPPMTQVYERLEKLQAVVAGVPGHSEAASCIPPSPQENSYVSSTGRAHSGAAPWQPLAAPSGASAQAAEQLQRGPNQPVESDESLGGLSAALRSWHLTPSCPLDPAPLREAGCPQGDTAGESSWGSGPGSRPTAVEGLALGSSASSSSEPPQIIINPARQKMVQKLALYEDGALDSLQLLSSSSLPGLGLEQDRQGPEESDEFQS

[6] = tested on: MOLM14 F691L cells; test: cells; assay type: cell-based; conditions: 48 hours, Cell Titer Glo, read-out: MOLM14 F691L IC50
[7] = tested on: MOLM14 D835Y cells; test: cells; assay type: cell-based; conditions: 48 hours, Cell Titer Glo, read-out: MOLM14 D835Y IC50
[8] = combination with (+)-BAY-1251152
[9] = combination with Eprenetapopt/APR-246
[10] = combination with Venetoclax (ABT-199)

IC50 ([1]; read-out: FLT3 IC50): < 0.5 nM
IC50 ([4]; read-out: IRAK4 IC50): < 0.5 nM
IC50 ([5]; read-out: IRAK1 IC50): < 0.5 nM
Structure (SMILES): COc1cc2ncc(-c3ccnc(N[C@@H]4CCCNC4)n3)n2cc1C(C)(O)C(F)(F)F (single isomer, unassigned) [Compound 59]
Excess HSA Score [2, 8]: −945.9
Excess HSA Score ([2]; combination with AMG-232): 249.9
Excess HSA Score ([2]; combination with AZD-5363): −164.6
Excess HSA Score [2, 9]: 269.2
Excess HSA Score ([2]; combination with Ivosidenib): 205.2
Excess HSA Score ([2]; combination with Lenalidomide): 30.374
Excess HSA Score ([2]; combination with Palbociclib): −620.1
Excess HSA Score ([2]; combination with Prednisolone): 486.6
Excess HSA Score ([2]; combination with SNDX-5613): 68.13
Excess HSA Score ([2]; combination with TNO-155): 213.8
Excess HSA Score ([2]; combination with Trametinib): −374.5
Excess HSA Score ([2]; combination with Ulixertinib): 164.2711
Excess HSA Score [2, 10]: −1422
Comments ([2]; combination with Lenalidomide): Antagonistic
Comments [2, 10]: Synergistic
Excess HSA Score [3, 8]: −448.2
Excess HSA Score ([3]; combination with AMG-232): −416.2
Excess HSA Score ([3]; combination with AZD-5363): −316.4244
Excess HSA Score [3, 9]: −22.76
Excess HSA Score ([3]; combination with Ivosidenib): 107.6
Excess HSA Score ([3]; combination with Lenalidomide): 395.8
Excess HSA Score ([3]; combination with Palbociclib): −185.3
Excess HSA Score ([3]; combination with Prednisolone): 66.52
Excess HSA Score ([3]; combination with SNDX-5613): 130.9
Excess HSA Score ([3]; combination with TNO-155): −722.6
Excess HSA Score ([3]; combination with Trametinib): −383
Excess HSA Score ([3]; combination with Ulixertinib): −473
Excess HSA Score [3, 10]: −1215
Comments ([3]; combination with Prednisolone): Antagonistic
Comments [3, 10]: Synergistic

IC50 ([6]; Homo sapiens, MOLM-14, 48 h): 770 nM
IC50 ([1]; FLT3 IC50): < 0.5 nM
IC50 ([7]; Homo sapiens, MOLM-14, 48 h): 137 nM
IC50 ([4]; IRAK4 IC50): 22 nM
IC50 ([5]; IRAK1 IC50): 31 nM
Structure (SMILES): CC(O)(c1cn2c(-c3ccnc(N[C@@H]4CCCNC4)n3)cnc2cn1)C(F)(F)F (single isomer, unassigned) [Compound 67]

IC50 [6]: 686 nM
IC50 ([1]; read-out: FLT3 IC50): < 0.5 nM
IC50 [7]: 69 nM
IC50 ([4]; IRAK4 IC50): < 0.5 nM
IC50 ([5]; IRAK1 IC50): 5 nM
Structure (SMILES): CC(O)(c1cn2c(-c3ccnc(N[C@H]4CNC[C@@H]4F)n3)cnc2cn1)C(F)(F)F (single isomer, unassigned) [Compound 71]

IC50 [6]: 969 nM
IC50 ([1]; FLT3 IC50): 8 nM
IC50 [7]: 612 nM
IC50 ([4]; IRAK4 IC50): 37 nM
IC50 ([5]; IRAK1 IC50): 91 nM
Structure (SMILES): CC(O)(c1cn2c(-c3cncc(N[C@@H]4CCCNC4)n3)cnc2cn1)C(F)(F)F (single isomer, unassigned) [Compound 73]

IC50 [6]: 344 nM
IC50 ([1]; FLT3 IC50): 3 nM
IC50 [7]: 217 nM
IC50 ([4]; IRAK4 IC50): 4 nM
IC50 ([5]; IRAK1 IC50): 29 nM
Structure (SMILES): CC(O)(c1cn2c(-c3cncc(N[C@@H]4CCCNC4)n3)cnc2cn1)C(F)(F)F (single isomer, unassigned) [Compound 74]

IC50 ([6]; Homo sapiens, MOLM-14, 48 h): 1720 nM
IC50 ([1]; FLT3 IC50): 9 nM
IC50 ([7]; Homo sapiens, MOLM-14, 48 h): 1090 nM
IC50 ([4]; IRAK4 IC50): 40 nM
IC50 ([5]; IRAK1 IC50): 262 nM
Structure (SMILES): CC(O)(c1cn2c(-c3cncc(N[C@H]4CNC[C@@H]4F)n3)cnc2cn1)C(F)(F)F (single isomer, unassigned) [Compound 75]

IC50 [6]: 1930 nM
IC50 ([1]; FLT3 IC50): 7 nM
IC50 [7]: 686 nM
IC50 ([4]; IRAK4 IC50): 4 nM
IC50 ([5]; IRAK1 IC50): 89 nM
Structure (SMILES): CC(O)(c1cn2c(-c3cncc(N[C@H]4CNC[C@@H]4F)n3)cnc2cn1)C(F)(F)F (single isomer, unassigned) [Compound 77]

IC50 [6]: 386 nM
IC50 ([1]; read-out: FLT3 IC50): < 0.5 nM
IC50 [7]: 193 nM
IC50 ([4]; IRAK4 IC50): < 0.5 nM
IC50 ([5]; IRAK1 IC50): 7 nM
Structure (SMILES): CC(O)(c1cn2c(-c3cncc(N[C@H]4CNCC[C@@H]4F)n3)cnc2cn1)C(F)(F)F (single isomer, unassigned) [Compound 78]
